Laboratory results: patent US20140107051A1, “ISOFLAVONES FOR TREATING MUCOPOLYSACCHARIDOSES” (INSTYTUT FARMACEUTYCZNY, priority 2005, published 2014)
Entries after “also recorded” stand apart in the source; their conditions may differ. Like-named read-outs stand apart in the source and are kept apart here.

Columns and labels:
MPS IIIB fibroblasts = assay: Number of lysosomal structures by electron microscopy, MPS IIIB; assay type: cell-based, human; conditions: 30 μM
[1] = tested on: cultured human skin fibroblasts derived from normal individuals; assay: 35S-sulphate incorporation test of glycosaminoglycans synthesis, normal cells; assay type: cell-based
Experimental: (§1) The activity of isoflavones was evaluated by the measure of glycosaminoglycans synthesis in 35S-sulphate incorporation test comprising incubation of the radiolabelled 35S-sulfate into GAGs in cultured human skin fibroblasts derived from normal individuals (control) and patients affected with mucopolysaccharidose (Murata et al., Arch Biochem Biophys 2003; 413: 229-235).
(§2) The negative control was DMSO (diluent for genistein and all derivatives), the positive control—genistein. […] Experiment with each cell line has been repeated twice, and every measurement has been done twice.

[2] = tested on: cultured human skin fibroblasts derived from patients affected with mucopolysaccharidose; assay: 35S-sulphate incorporation test of glycosaminoglycans synthesis, different human cell lines / MPS types; assay type: cell-based
Experimental: as §1, §2

MPS IIIA fibroblasts = assay: Number of lysosomal structures by electron microscopy, MPS IIIA; assay type: cell-based, human; conditions: 30 μM
[3] = Proliferation 144 h (Table 4); assay type: cell-based; conditions: read-out: Proliferation 144 h IC50
[4] = tested on: glycosaminoglycan (GAG) synthesis; assay: GAG synthesis, 35S incorp. (Table 4); assay type: cell-based
[5] = tested on: fibroblasts of patients affected with MPS I; assay: 35S-sulphate incorporation test of glycosaminoglycans synthesis, MPS I cells; assay type: cell-based, human
Experimental: as §1, §2

[6] = rat; intravenously administered; cited from earlier work
fibroblasts = assay: Electron microscope observation of GAG deposits in fibroblasts; assay type: cell-based, human; conditions: fibroblasts cultured one week; genistein 10 micromolar
[7] = tested on: fibroblasts cells derived from patients affected with different MPSs; assay: GAG level / deposits in cultured fibroblasts of MPS patients; assay type: cell-based, human

CCCC[N+](CCCC)(CCCC)CCCC.O=C([O-])CCCC(=O)Oc1cc(O)c2c(=O)c(-c3ccc(O)cc3)coc2c1 [IFG-038]
Number of structures per 100 μm^2 of cellular cross section ± SD, amorphous (MPS IIIB fibroblasts): 0.09 ± 0.09 per 100 μm^2 | Number of structures per 100 μm^2 of cellular cross section ± SD, complexed (MPS IIIB fibroblasts): 0.10 ± 0.10 per 100 μm^2 | Number of structures per 100 μm^2 of cellular cross section ± SD, lamellar (MPS IIIB fibroblasts): 0.21 ± 0.12 per 100 μm^2 | Number of structures per 100 μm^2 of cellular cross section ± SD, total number (MPS IIIB fibroblasts): 0.41 ± 0.18 per 100 μm^2 | Relative GAG synthesis (converted to 1 cell), Normal cells ([1]; 30 μM, DMSO control = 1): 0.74 | influence on GAG synthesis compared with genistein (in words) ([2]; 30 μM, both cell lines of Table 2): an activity comparable with genistein | Number of structures per 100 μm^2 of cellular cross section ± SD, amorphous (MPS IIIA fibroblasts): 0.21 ± 0.13 per 100 μm^2 | Number of structures per 100 μm^2 of cellular cross section ± SD, complexed (MPS IIIA fibroblasts): 0.27 ± 0.13 per 100 μm^2 | Number of structures per 100 μm^2 of cellular cross section ± SD, lamellar (MPS IIIA fibroblasts): 0.32 ± 0.16 per 100 μm^2 | Number of structures per 100 μm^2 of cellular cross section ± SD, total number (MPS IIIA fibroblasts): 0.80 ± 0.24 per 100 μm^2 | IC50 [3]: 19.9 µM | GAG synthesis 35S incorp. [4]: 55 ± 13% | Relative GAG synthesis (converted to 1 cell), MPS I ([5]; 30 μM, DMSO control = 1): 0.74 | CC50 (read-out: Cytotoxicity 24 h LC50, 24 h): > 30 µM | CC50 (read-out: Cytotoxicity 48 h LC50, 48 h): > 30 µM

O=c1c(-c2ccc(O)cc2)coc2cc(O)cc(O)c12 [Genistein, 4′,5,7-trihydroxy-3-phenylchromen-4-on, reference compound]
effectiveness of crossing the blood-brain barrier [6]: about 10% | Inhibition in relation to genistein, first symbol (normal cells) ([1]; 30 μM): 0 | activity at 30 µM ([1]; Homo sapiens, Skin fibroblast, 30 μM, DMSO control = 1, read-out: Relative GAG synthesis (converted to 1 cell), Normal cells): 25% | level of glycosaminoglycans synthesis (in words) ([1]; fibroblasts from normal individuals, FIG. 1): significant decreasing | glycosaminoglycans synthesis (in words) ([2]; cells from individuals with other types of MPS, FIG. 2, FIG. 3): significantly reduced | glycosaminoglycans synthesis (in words) ([2]; cultured fibroblasts from MPS patients, 10-30 micromoles/l): significant inhibition of glycosaminoglycans synthesis | deposits seen by electron microscope (in words) (fibroblasts): disappearance of deposits; also recorded: decline of the before accumulated glycosaminoglycans | IC50 [3]: 16.9 µM | level of glycosaminoglycans in cells (in words) ([7]; cells of MPS I, MPS II, MPS IIIA and MPS IIIB patients, six days): significantly decreased, reaching after six days a level almost identical with the normal one | genistein concentrations at which decrease of GAG synthesis and reduction of deposits is observed ([7]; cultured fibroblasts): 10 to 20 µmol/L | removal of GAG deposits accumulated in cells (in words) ([7]; few days of cultivation, genistein 10 micromoles/l, FIG. 4): deposits are gradually removed; also recorded: comparable with the activity of recombinant human α-L-iduronidase (Aldurazyme) | activity at 30 µM ([5]; Homo sapiens, Fibroblast, 30 μM, DMSO control = 1, read-out: Relative GAG synthesis (converted to 1 cell), MPS I): 51% | level of glycosaminoglycans synthesis (in words) ([5]; fibroblasts from MPS 1 patients, FIG. 1): significant decreasing
